pIC50: −log10 of the molar value.
Experiments:
[1] = Inhibition of HDAC in human SHSY5Y cells using MAL as substrate after 8 hrs by UHPLC-ESI-MS/MS analysis; assay type: cell-based; details: SH-SY5Y
[2] = Effective passive permeability of the compound assessed as membrane retention at 100 uM at pH 7.4 after 18 hrs by UHPLC-UV based PAMPA-BBB assay; assay type: ADME; details: pH 7.4, 18 h
[3] = Effective passive permeability of the compound at 100 uM at pH 7.4 after 18 hrs by UHPLC-UV based PAMPA-BBB assay; assay type: ADME; details: read-out: Peff
[4] = biological target: Histone deacetylase 1/2/3 (Homo sapiens, UniProt Q13547+O15379+Q92769); assay type: protein assay
[5] = biological target: T1, Protein deacetylase HDAC6 (Homo sapiens, UniProt Q9UBN7); experiment: Inhibition of human recombinant HDAC6 expressed in baculovirus infected insect cells using BATCP as substrate after 4 hrs by UHPLC-ESI-MS/MS analysis
T1 sequence (Q9UBN7 whole entry): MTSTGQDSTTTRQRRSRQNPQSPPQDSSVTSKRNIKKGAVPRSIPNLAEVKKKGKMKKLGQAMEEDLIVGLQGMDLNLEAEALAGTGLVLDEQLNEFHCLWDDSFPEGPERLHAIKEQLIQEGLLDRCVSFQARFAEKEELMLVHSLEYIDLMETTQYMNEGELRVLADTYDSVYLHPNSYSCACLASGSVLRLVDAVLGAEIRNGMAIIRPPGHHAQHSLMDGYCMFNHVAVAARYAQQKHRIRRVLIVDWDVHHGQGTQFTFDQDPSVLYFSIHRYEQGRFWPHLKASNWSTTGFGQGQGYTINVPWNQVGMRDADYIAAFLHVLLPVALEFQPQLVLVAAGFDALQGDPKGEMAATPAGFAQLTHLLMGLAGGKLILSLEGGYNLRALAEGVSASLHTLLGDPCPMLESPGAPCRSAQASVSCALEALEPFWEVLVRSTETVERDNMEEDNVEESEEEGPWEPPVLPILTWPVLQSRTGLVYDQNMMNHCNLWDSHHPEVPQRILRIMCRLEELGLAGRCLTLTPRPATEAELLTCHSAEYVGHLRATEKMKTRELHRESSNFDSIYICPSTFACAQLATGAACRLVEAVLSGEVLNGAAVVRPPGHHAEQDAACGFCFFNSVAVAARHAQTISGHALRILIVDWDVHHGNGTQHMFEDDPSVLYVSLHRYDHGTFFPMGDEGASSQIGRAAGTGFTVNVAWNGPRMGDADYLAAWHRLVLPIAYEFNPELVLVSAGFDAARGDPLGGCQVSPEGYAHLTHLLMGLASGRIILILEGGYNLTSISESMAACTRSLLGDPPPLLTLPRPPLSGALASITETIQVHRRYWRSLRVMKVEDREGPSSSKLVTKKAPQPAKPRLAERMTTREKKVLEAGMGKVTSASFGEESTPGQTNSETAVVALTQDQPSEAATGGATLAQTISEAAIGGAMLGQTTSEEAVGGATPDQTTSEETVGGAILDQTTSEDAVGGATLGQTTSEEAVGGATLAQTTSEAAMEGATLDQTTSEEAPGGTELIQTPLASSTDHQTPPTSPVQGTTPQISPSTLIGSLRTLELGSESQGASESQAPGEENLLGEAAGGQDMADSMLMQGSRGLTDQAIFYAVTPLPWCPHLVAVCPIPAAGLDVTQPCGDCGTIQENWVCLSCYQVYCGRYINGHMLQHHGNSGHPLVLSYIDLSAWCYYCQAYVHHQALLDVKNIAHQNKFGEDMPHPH

[6] = biological target: T2, Histone deacetylase 1 (Homo sapiens, UniProt Q13547)
[7] = biological target: T1, Protein deacetylase HDAC6; experiment: Inhibition of HDAC6 in human SHSY5Y cells using BATCP as substrate after 8 hrs by UHPLC-ESI-MS/MS analysis; assay type: cell-based, SH-SY5Y
[8] = biological target: T2, Histone deacetylase 1; experiment: biochemical

T2 sequence (Q13547 whole entry): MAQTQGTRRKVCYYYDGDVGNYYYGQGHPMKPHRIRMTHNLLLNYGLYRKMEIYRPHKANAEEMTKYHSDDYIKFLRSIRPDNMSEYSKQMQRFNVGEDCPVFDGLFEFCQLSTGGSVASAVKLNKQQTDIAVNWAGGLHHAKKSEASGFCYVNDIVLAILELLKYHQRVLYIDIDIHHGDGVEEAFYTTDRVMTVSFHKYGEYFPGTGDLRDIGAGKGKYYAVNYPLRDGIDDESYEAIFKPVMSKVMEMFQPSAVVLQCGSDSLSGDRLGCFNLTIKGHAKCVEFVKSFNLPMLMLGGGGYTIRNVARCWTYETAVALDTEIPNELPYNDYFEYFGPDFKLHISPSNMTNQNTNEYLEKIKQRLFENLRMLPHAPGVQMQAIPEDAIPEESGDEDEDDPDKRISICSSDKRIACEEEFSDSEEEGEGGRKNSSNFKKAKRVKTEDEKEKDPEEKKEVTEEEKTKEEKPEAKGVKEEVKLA

pIC50 [1] | R% [2] [%] | Papp at 18 h, 100 µM [3] [×10⁻⁶ cm/s] | IC50 [4] [nM] | pIC50 [5] | pIC50 [6] | pIC50 [7] | pIC50 [8] | SMILES
8.04 |  |  |  |  |  |  |  | CC(/C=C/C(=O)NO)=C\[C@@H](C)C(=O)c1ccc(N(C)C)cc1 [TRICHOSTATIN]
 | < 1 | < 2 |  |  |  |  |  | CC(C)(C)OC(=O)ON(C(=O)CCCCCCC(=O)N(OC(=O)OC(C)(C)C)C(=O)OC(C)(C)C)C(=O)OC(C)(C)C
6.51 | 6.8 | 8.7 | 188.1 | 7.44 | 6.01 | 6.78 | 6.25 | O=C(CCCCCc1ccc2c(c1)OCO2)NO
 | < 1 | < 2 |  |  |  |  |  | O=C(CCCCCCC(=O)NO)NO [SUBEROHYDROXAMIC ACID]
6.91 | 70.8 | 6.8 |  |  |  |  |  | CN1CCc2c(c3ccccc3n2Cc2ccc(C(=O)NO)cc2)C1 [TUBASTATIN A]

Source: ChEMBL document CHEMBL3860072, “Synthesis of a selective HDAC6 inhibitor active in neuroblasts” (Bioorg Med Chem Lett, 2016)
